From patent US10323254B2, “Method for regulating plant growth” (RIKEN, priority 2015, dated 2019) come the findings set out here.

Common to all, as to format: in vivo, Arabidopsis thaliana
One assay deals with BSS1. The assay can be described thus: qRT-PCR of BSS1 expression in wild-type seedlings. To be noted: WT seedlings on medium with different concentrations of Brz or BL, 7 days; dose-dependent. The protocol:
The data represent the mean±s.d. from 4 independent experiments. […] The samples were grown in the same conditions as FIG. 4A for 3 days (scale bar: 5 mm). FIGS. 4C to 4E show the results of determining the BSS1 expression level by qRT-PCR. Wild-type (WT) seedlings grown on medium with different concentrations of Brz (FIG. 4C) and BL (FIG. 4D) in the light for 7 days and dark-grown seedlings exposed to light for 0-7 days (Figure E) were used for analysis of the BSS1 expression level. The data represent the mean±s.d. of 4 independent experiments.
Approximately 10,000 RIKEN GSC Arabidopsis activation-tagging lines (Nakazawa et al., 2003, Activation tagging, a novel tool to dissect the functions of a gene family. Plant J. 34: 741-750) were screened on ½ MS medium containing 3 μM Brz (Asami et al., 2000, Characterization of brassinazole, a triazole-type brassinosteroid biosynthesis inhibitor, Plant Physiol. 123: 93-100). After growth for 7 days in the dark, seedlings with shorter hypocotyls than those of the controls were identified and transferred to soil. […] First-strand cDNA was synthesized with PrimeScript (Takara) and used in quantitative real-time PCR (qRT-PCR). […]

Assay [1] relates to BSS1-GFP. The assay is described as follows: Fluorescence microscopy of punctate BSS1-GFP in transgenic seedlings. Particulars: for number of intense puncta per cell: 7-day-old BSS1-GFP seedlings treated 3 hours with 3 μM Brz or 100 μM BL; for single fluorescence intensity of each punctum: Brz versus BL treatment conditions, 3 hours; for onset of responsiveness of punctate BSS1-GFP: time after treatment, roots and hypocotyls. On the procedure:
FIGS. 5C to 5E show analysis of BSS1-GFP puncta signal intensities upon treatment with Brz and BL. Seven-day-old BSS1-GFP transgenic seedlings were treated for 3 hours with 3 μM Brz (Brz), an equal volume of DMSO (Mock), or 100 μM BL (BL). […] The results are represented as the mean±s.d. The signal intensity was measured using ImageJ software. […]
The plants that were transformed with the CaMV35S-BSS1-GFP construct BSS1(-GFP)-OX and the CaMV35S-BIL1-GFP construct BIL1-GFP-OX were observed via confocal laser scanning microscopy with a BX60 fluorescence microscope (Olympus) equipped with a Model CSU10 confocal scanner (Yokogawa Electric) and LSM700 (Zeiss).
FM4-64 (Molecular Probes) dissolved in water was applied to Arabidopsis plants at a final concentration of 4 μM for 3 minutes. The plants were washed with water to remove the excessive amount of the stain and observed. A DMSO-base stock solution of Brefeldin A (BFA) (Sigma) was applied to the cells at a final concentration of 50 μM for 1 hour.
The images were analyzed using ImageJ software. To measure the ratio of the nuclear and cytosolic signals of BIL1-GFP for each cell, the signal intensities in the nucleus and cytosol were calculated from the mean of the intensity in each area. The nuclear to cytosolic signal ratio was then calculated for each cell. The average nuclear/cytosolic signal ratio and standard error were calculated from measurements of at least 54 cells from each line (FIG. 9B). Line scan measurements from the vacuole to the nucleus through the cytosol were performed, and representative plot profiles of sample measurements are presented in FIG. 5C.

Assay [2] deals with BSS1-GFP. The description is as above. Particulars: versus control conditions; for number of punctate BSS1-GFP: seedlings grown on medium with 3 μM Brz or 100 nM BL.
Assay [3] relates to BR-responsive genes (TCH4, BAS1, IAA19, and SAUR-AC1). The assay can be described thus: qRT-PCR of BR-responsive gene expression in seedlings. To be noted: wild-type (WT) plants; 7-day-old dark-germinated seedlings; 3 μM Brz or 100 nM BL for 3 hours. The protocol:
The expression level of TCH, BAS1, IAA19, and SAUR-AC1 were analyzed by qRT-PCR in 7-day-old dark-germinated seedlings and treated with medium containing DMSO (Mock), 3 μM Brz (+Brz), or 100 nM BL (+BL) for 3 hours. The data represent the mean±s.d. of 4 independent experiments (**P<0.01, Student's t-test). […] Ten-day-old seedlings grown on medium with Brz were treated with 100 nM BL or mock solution for 3 hours. Total proteins were extracted and analyzed by immunoblotting with an anti-BIL1 antibody. […] The signal intensities of phosphorylated BIL1 (above) and dephosphorylated BIL1 (below) are shown by arrowhead, and each band signal is counted as a percentage relative to the level of phosphorylated BIL1 in WT seedlings.
Total RNA was extracted from plants using an RNeasy Plant Mini Kit (QIAGEN).
The first-strand cDNA was synthesized using PrimeScript (Takara) and was used in qRT-PCR. The qRT-PCR was performed according to the instructions provided for the Thermal Cycler Dice (Takara) using the SYBR Premix ExTaq system (Takara). […]

Regarding `CC(C)[C@H](C)[C@@H](O)[C@H](O)[C@@H](C)[C@H]1CC[C@H]2[C@@H]3COC(=O)[C@H]4C[C@H](O)[C@H](O)C[C@]4(C)[C@H]3CC[C@]12C` [BL, brassinolide], in the assay with BSS1, the BSS1 expression entry is given as “decreased”. Moreover, the “number of intense puncta per cell” value in the assay with BSS1-GFP [1] (versus mock) is “decreased”. Besides, in the assay on BSS1-GFP [1], the “single fluorescence intensity of each punctum” value is “not different” and the “onset of responsiveness of punctate BSS1-GFP” value came out at 15 min. In the assay on BSS1-GFP [2], the “number of punctate BSS1-GFP” value was “decreased in number”. The “expression of TCH4, BAS1, IAA19, and SAUR-AC1” value in assay [3] is listed as “increased”.

As for `CC(O)(c1ccccc1)C(Cc1ccc(Cl)cc1)n1cncn1` (stereo not drawn) [Brz, brassinazole], the BSS1 expression result in the assay on BSS1 is on record as “increased”. Besides, the “fluorescence intensity of the puncta per cell with respect to the whole-cell fluorescence intensity” value in the assay on BSS1-GFP [1] (7-day-old BSS1-GFP seedlings treated 3 hours with 3 μM Brz) is on record as “increase”. In the assay on BSS1-GFP [1] (versus mock), the “number of intense puncta per cell” value was “increased”. In addition, in the assay with BSS1-GFP [1] (7-day-old BSS1-GFP seedlings treated 3 hours with 3 μM Brz, versus mock), the cytosolic fluorescence signal result is “decreased”. Besides, in the assay with BSS1-GFP [1], the “single fluorescence intensity of each punctum” value was “not different” and the “onset of responsiveness of punctate BSS1-GFP” value is 15 min. The “diffused BSS1-GFP signal in the cytosol” value with BSS1-GFP [2] (seedlings grown on medium containing Brz) is “reduced”. For the same compound, the “number of punctate BSS1-GFP” value in the assay on BSS1-GFP [2] is listed as “increased in number”. The “expression of TCH4, BAS1, IAA19, and SAUR-AC1” value in assay [3] was “suppressed”.
